Results on ten molecules are retold here after patent publication US10604512B2, “3-(1H-indol-2-yl)-1H-indazoles and therapeutic uses thereof” (Samumed, LLC, priority 2015, dated 2020).

The structures appear in SMILES notation.

Format in all cases: cell-based
Experiment [1] concerns Wnt activity (Sp5-Luc reporter, TCF/LEF binding sites) in SW480 colon carcinoma cells. The experiment is described as follows: Screening assay for Wnt activity: Sp5-Luc reporter gene assay in stably transduced SW480 colon carcinoma cells. To be noted: Homo sapiens, overnight incubation, 10-point curve from 10 μM. An excerpt:
The screening assay for Wnt activity is described as follows. Reporter cell lines can be generated by stably transducing cancer cell lines (e.g., colon cancer) or primary cells (e.g., IEC-6 intestinal cells) with a lentiviral construct that includes a Wnt-responsive promoter driving expression of the firefly luciferase gene.
SW480 colon carcinoma cells were transduced with a lentiviral vector expressing luciferase with a human Sp5 promoter consisting of a sequence of eight TCF/LEF binding sites. SW480 cells stably expressing the Sp5-Luc reporter gene and a hygromycin resistance gene were selected by treatment with 150 μg/mL of hygromycin for 7 days. These stably transduced SW480 cells were expanded in cell culture and used for all further screening activities. Each compound was dissolved in DMSO as a 10 mM stock and used to prepare compound source plates. Serial dilution (1:3, 10-point dose-response curves starting from 10 μM) and compound transfer was performed using the ECHO 550 (Labcyte, Sunnyvale, Calif.) into 384-well white solid bottom assay plates (Greiner Bio-One) with appropriate DMSO backfill for a final DMSO concentration of 0.1%. For Sp5-Luc reporter gene assays, the cells were plated at 4,000 cells/well in 384-well plates with medium containing 1% fetal bovine serum and incubated overnight at 37° C. and 5% CO2. Following incubation, 20 μl of BrightGlo luminescence reagent (Promega) was added to each well of the 384-well assay plates. The plates were placed on an orbital shaker for 2 min and then luminescence was quantified using the Envision (Perkin Elmer) plate reader. Readings were normalized to DMSO only treated cells, and normalized activities were utilized for EC50 calculations using the dose-response log (inhibitor) vs. response variable slope (four parameters) nonlinear regression feature available in GraphPad Prism 5.0 (or Dotmatics). For EC50 of >10 μM, the percent inhibition at 10 μM is provided.
In general terms: In a reporter assay the amount or activity of a reporter protein is the signal.

Experiment [2] deals with SW480 colon cancer cells. Kind of experiment: Cell viability assay (CellTiter-Blue) in SW480 colon cancer cells. To be noted: Homo sapiens, 96 h, four days, CellTiter-Blue. As for the experimental part:
Representative compounds were screened using the following assay procedure to assess the effect on cell viability as described below.
Each compound was dissolved in DMSO as a 10 mM stock and used to prepare compound source plates. Serial dilution (1:3, 8-point dose-response curves from 10 μM to 0.0045 μM) and compound transfer was performed using the ECHO 550 (Labcyte, Sunnyvale, Calif.) into 96-well clear bottom, black-walled plates (Corning-Costar).
Approximately 2×10^3 SW480 colon cancer cells were seeded into each well and allowed to incubate in the presence or absence of compound for four days at 37° C./5% CO2. Eight replicates of DMSO-treated cells served as controls and cells treated with compound were performed in duplicate.
After incubation, 20 μL of CellTiter-Blue (Promega) was added to each well allowed to incubate for approximately 3 hours. This reagent was a buffered solution which contains resazurin, metabolically active cells were able to reduce rezarurin (blue) into resorufin (pink) which was highly fluorescent. This measured fluorescence was used as a readout for cell viability.
After incubation, the plates were read at Ex 560 nm Em 590 nm (Cytation 3, BioTek). Dose-response curves were generated and EC50 concentration values were calculated using non-linear regression curve fit in the GraphPad Prism (San Diego, Calif.) or Dotmatics' Studies Software (Bishops Stortford, UK). For EC50 of >10 μM, the percent inhibition at 10 μM is provided.
On the technique in general: Alamar Blue is a resazurin reagent that responds to reducing activity.

The test system of experiment [3] is Primary human fibroblasts derived from IPF patients (LL29 cells) treated with TGF-β1. The experiment is described as follows: Inhibition of the fibrotic process: αSMA staining in TGF-β1-treated primary human fibroblasts from IPF patients (LL29 cells). To be noted: Fibroblast, 96 h, % αSMA-positive LL29 cells, TGF-β1 20 ng/mL, 4 days. The source says: Representative compounds were screened using primary human fibroblasts (derived from IPF patients) treated with TGF-β1 to determine their ability to inhibit the fibrotic process.
Primary human fibroblasts derived from IPF patients (LL29 cells) [^1Xiaoqiu Liu, et. al., “Fibrotic Lung Fibroblasts Show Blunted Inhibition by cAMP Due to Deficient cAMP Response Element-Binding Protein Phosphorylation”, Journal of Pharmacology and Experimental Therapeutics (2005), 315(2), 678-687; ^2Watts, K. L., et. al., “RhoA signaling modulates cyclin D1 expression in human lung fibroblasts; implications for idiopathic pulmonary fibrosis”, Respiratory Research (2006), 7(1), 88] were obtained from American Type Culture Collection (ATCC) and expanded in F12 medium supplemented with 15% Fetal Bovine Serum and Penicillin/Streptomycin.
Each compound was dissolved in DMSO as a 10 mM stock and used to prepare compound source plates. Serial dilution (1:2, 11-point dose-response curves from 10 μM to […]) and compound transfer was performed using the ECHO 550 (Labcyte, Sunnyvale, Calif.) into 384-well clear bottom assay plates (Greiner Bio-One) with appropriate DMSO backfill for a final DMSO concentration of 0.1%. LL29 cells are plated at 1,500 cells/well in 80 μL/well F12 medium supplemented with 1% Fetal Bovine Serum. One hour after addition of the cells, TGF-β1 (Peprotech; 20 ng/mL) was added to the plates to induce fibrosis (ref 1 and 2 above). Wells treated with TGF-β1 and containing DMSO were used as controls. Cells were incubated at 37° C. and 5% CO2 for 4 days. Following incubation for 4 days, SYTOX green nucleic acid stain (Life Technologies [Thermo Fisher Scientific]) was added to the wells at a final concentration of 1 μM and incubated at room temperature for 30 min. Cells were then fixed using 4% formaldehyde (Electron Microscopy Sciences), washed 3 times with PBS followed by blocking and permeabilization using 3% Bovine Serum Albumin (BSA; Sigma) and 0.3% Triton X-100 (Sigma) in PBS. Cells were then stained with antibody specific to α-smooth muscle actin (αSMA; Abcam) (ref 1 and 2 above) in 3% Bovine Serum Albumin (BSA; Sigma) and 0.3% Triton X-100 (Sigma) in PBS, and incubated overnight at 4° C. Cells were then washed 3 times with PBS, followed by incubation with Alexa Flor-647 conjugated secondary antibody (Life Technologies [Thermo Fisher Scientific]) and DAPI at room temperature for 1 hour. Cells were then washed 3 times with PBS and plates were sealed for imaging. αSMA staining was imaged by excitation at 630 nm and emission at 665 nm and quantified using the Compartmental Analysis program on the CellInsight CX5 (Thermo Scientific). Dead or apoptotic cells were excluded from analysis based on positive SYTOX green staining. % of total cells positive for αSMA were counted in each well and normalized to the average of 11 wells treated with TGF-β1 on the same plate using Dotmatics' Studies Software. The normalized averages (fold change over untreated) of 3 replicate wells for each compound concentration were used to create dose-responses curves and EC50 values were calculated using non-linear regression curve fit in the Dotmatics' Studies Software. For EC50 of >10 μM, the percent inhibition at 10 μM is provided.

Experiment [4] relates to IL-6. The experiment is described as follows: Inhibition of IL-6 in LPS-stimulated THP-1 human monocyte cells (HTRF). To be noted: IL-6 inhibition, LPS-stimulated THP-1 cells, HTRF. How it is done:
Human monocyte cell line (THP-1 cells; Catalog # TIB-202, ATCC, Manassas, Va.) were cultured in Roswell Park Memorial Institute (RPMI) 1640 Medium (Catalog #21870-100, Buffalo, N.Y.) with 1% L-glutamine, 1% HEPES, 1% Sodium Pyruvate, 2% Sodium Bicarbonate supplemented with 100 units/mL penicillin, 50 μg/mL streptomycin, 2-mercaptoethanol (0.05 mM) [basal medium] and 10% fetal bovine serum (Catalog #16140089, Life Technologies, Carlsbad, Calif.) at 37° C. and 5% CO2.
THP-1 cells were cultured in basal media with 1% FBS for 24 hours before the start of the assay. Each compound was dissolved in DMSO as a 10 mM stock and used to prepare compound source plates. Serial dilution (1:3, 10-point dose-response curves starting from 10 μM) and compound transfer was performed using the ECHO 550 (Labcyte, Sunnyvale, Calif.) into 384-well white low volume assay plates (Greiner Bio-One) with appropriate DMSO backfill for a final DMSO concentration of 0.1%. THP-1 cells were plated at 5000 cells/well in the 384-well plates and incubated at 37° C. for 2 h. 500 ng/mL of LPS was added after 2 hours and cells were incubated for another 22 hours at 37° C. Plates were spun in a centrifuge for 1 minute at […] and a mixture of anti-IL6 XL665, and anti-IL6 Cryptate diluted in reconstitution buffer (Cisbio Inc.) was added to each well. Following incubation for 3 hrs at room temperature, Homogeneous Time-Resolved Fluorescence (HTRF) was measured using the Envision (Perkin Elmer) at 665 nm and […]. The ratio of fluorescence at 665 nm to 620 nm was used as a readout for IL6 quantification. All samples were processed in duplicate. Readings were normalized to DMSO treated cells and normalized activities were utilized for EC50 calculations using the dose-response log (inhibitor) vs. response variable slope (four parameters) nonlinear regression feature available in GraphPad Prism 5.0 (or Dotmatics). For EC50 of >10 μM, the percent inhibition at 10 μM is provided.
Background: Time-resolved FRET reads energy transfer from a long-lived donor to a nearby acceptor.

Regarding `Fc1ccccc1-c1cccc2[nH]c(-c3n[nH]c4ccc(-c5cncc(CN6CCC(F)(F)C6)c5)cc34)cc12` [Compound 82, 5-(5-((3,3-Difluoropyrrolidin-1-yl)methyl)pyridin-3-yl)-3-(4-(2-fluorophenyl)-1H-indol-2-yl)-1H-indazole], the EC50 (commonly the concentration giving half of the maximal effect) stood at 2980 nM in experiment [1], 5240 nM in experiment [2], 2260 nM in experiment [3] and 4300 nM in experiment [4].

With `CCCCC(=O)Nc1cncc(-c2ccc3[nH]nc(-c4cc5c(N6CCN(C)CC6)cccc5[nH]4)c3c2)c1` [Compound 243, N-(5-(3-(4-(4-Methylpiperazin-1-yl)-1H-indol-2-yl)-1H-indazol-5-yl)pyridin-3-yl)pentanamide], the EC50 worked out at 664 nM in experiment [1], 1820 nM in experiment [2], 1270 nM in experiment [3] and 15 nM in experiment [4].

On to `CCCC(=O)Nc1cncc(-c2ccc3[nH]nc(-c4cc5c(N6CCCCC6)cccc5[nH]4)c3c2)c1` [Compound 185, N-(5-(3-(4-(Piperidin-1-yl)-1H-indol-2-yl)-1H-indazol-5-yl)pyridin-3-yl) butyramide], for which the half-maximal effective concentration (EC50) in experiment [1] stood at 469 nM; in experiment [2], 1840 nM; in experiment [3] it was 682 nM; in experiment [4], 7150 nM.

As for `NC1CN(c2cncc(-c3ccc4[nH]nc(-c5cc6c(N7CCCCC7)cccc6[nH]5)c4c3)n2)C1` [Compound 634, 1-(6-(3-(4-(piperidin-1-yl)-1H-indol-2-yl)-1H-indazol-5-yl)pyrazin-2-yl)azetidin-3-amine], the EC50 is 468 nM in experiment [1], 1250 nM in experiment [2], 794 nM in experiment [3] and 74 nM in experiment [4].

Consider `CS(=O)(=O)NCc1cc(F)cc(-c2cccc3[nH]c(-c4n[nH]c5ccc(-c6cncc(CN7CCC(F)(F)C7)c6)cc45)cc23)c1` [Compound 502, N-(3-(2-(5-(5-((3,3-Difluoropyrrolidin-1-yl)methyl)pyridin-3-yl)-1H-indazol-3-yl)-1H-indol-4-yl)-5-fluorobenzyl)methane sulfonamide], for which the EC50 is 475 nM in experiment [1], 3270 nM in experiment [2], 811 nM in experiment [3] and 3140 nM in experiment [4].

For `CC(C)C(=O)Nc1cncc(-c2ccc3[nH]nc(-c4cc5c(-c6ccccc6F)cccc5[nH]4)c3c2)c1` [Compound 65, N-(5-(3-(4-(2-Fluorophenyl)-1H-indol-2-yl)-1H-indazol-5-yl)pyridin-3-yl) isobutyramide], the EC50 in experiment [1] came out at 1160 nM; in experiment [2], 981 nM; in experiment [3] it was 305 nM; in experiment [4] it was 105 nM.

Regarding `CS(=O)(=O)NCc1cc(F)cc(-c2cccc3[nH]c(-c4n[nH]c5ccc(-c6cncc(CN7CCCCC7)c6)cc45)cc23)c1` [Compound 491, N-(3-Fluoro-5-(2-(5-(5-(piperidin-1-ylmethyl)pyridin-3-yl)-1H-indazol-3-yl)-1H-indol-4-yl)benzyl)methanesulfonamide], the EC50 was found to be 540 nM in experiment [1], 1490 nM in experiment [2], 833 nM in experiment [3] and 5450 nM in experiment [4].

Take `c1cc(-c2ccoc2)c2cc(-c3n[nH]c4ccc(-c5cncc(CN6CCCCC6)c5)cc34)[nH]c2c1` [Compound 323, 3-(4-(Furan-3-yl)-1H-indol-2-yl)-5-(5-(piperidin-1-ylmethyl)pyridin-3-yl)-1H-indazole]: the concentration giving a half-maximal response (EC50) was 185 nM in experiment [1], 442 nM in experiment [2], 728 nM in experiment [3] and 593 nM in experiment [4].

As for `c1cc(-c2ccoc2)c2cc(-c3n[nH]c4ccc(-c5cnccn5)cc34)[nH]c2c1` [Compound 724, 3-(4-(Furan-3-yl)-1H-indol-2-yl)-5-(pyrazin-2-yl)-1H-indazole], the EC50 is 791 nM in experiment [1], 3510 nM in experiment [2], 96 nM in experiment [3] and 31 nM in experiment [4].

On to `CC(C)Nc1cncc(-c2ccc3[nH]nc(-c4cc5c(N6CCN(C)CC6)cccc5[nH]4)c3c2)c1` [Compound 236, N-Isopropyl-5-(3-(4-(4-methylpiperazin-1-yl)-1H-indol-2-yl)-1H-indazol-5-yl)pyridin-3-amine], for which the EC50 amounted to 352 nM in experiment [1], 677 nM in experiment [2], 761 nM in experiment [3] and 253 nM in experiment [4].
